Assays:
[1] = system: subjects with primary hypercholesterolemia; test: Multicenter, double-blind, placebo-controlled, parallel study of lipid (LDL-C, TC, HDL-C, TG) lowering efficacy of once-daily pravastatin 40-160 mg; assay type: in vivo, human; conditions: for HDL-C % Δ, adjusted percent change from baseline (ANCOVA) / LDL-C (calculated) % Δ, adjusted percent change from baseline (ANCOVA) / TC % Δ, adjusted percent change from baseline (ANCOVA) / TG % Δ, adjusted percent change from baseline (ANCOVA) / increase in HDL-C / mean reduction in TC / mean reduction in TG: Week 6; for mean reduction in LDL-C: 6 weeks of treatment
Experimental: A Multicenter, Double-Blind, Placebo-Controlled, Parallel Study to Determine the LDL-C Lowering Efficacy of Pravastatin Administered Once Daily Over the Dosage Range of 40 mg Through 160 mg.
(§1) Objectives: The primary objective of this study was to evaluate the dose-related cholesterol (LDL-C) lowering efficacy of pravastatin 40 mg, 80 mg and 160 mg after 6 weeks of once-daily oral administration in subjects with primary hypercholesterolemia. Secondary objectives were: 1) to evaluate the dose-related changes in serum total cholesterol (TC), high-density lipoprotein cholesterol (HDL-C), and triglycerides (TG) concentrations after 6 weeks of once-daily oral administration of pravastatin 40 mg, 80 mg and 160 mg in subjects with primary hypercholesterolemia; 2) to estimate the dose-related changes in serum LDL-C, TC, HDL-C, and TG concentrations after 2 weeks and 4 weeks of once-daily oral administration of pravastatin 40 mg, 80 mg and 160 mg in subjects with primary hypercholesterolemia; and 3) to ascertain the safety and tolerability of the treatment regimens after 6 weeks of once-daily oral administration of pravastatin 40 mg, 80 mg and 160 mg in subjects with primary hypercholesterolemia.
Duration of Treatment: 6 weeks
(§2) Study Design and Methodology: This study was a multicenter, randomized, double-blind placebo-controlled, parallel design trial to determine the LDL-C lowering efficacy of pravastatin over a dose range of 40-160 mg in subjects with primary hypercholesterolemia. After at least 2 weeks of dietary stabilization and discontinuation of any previous lipid-lowering agents for a minimum of 4 weeks, subjects entered into a 4-week single-blind placebo lead-in period. At the end of the placebo lead-in period, subjects with mean serum LDL-C≧160 mg/dL and mean serum TG≦500 mg/dL were randomized (1:1:1:1) to one of four treatment groups: pravastatin 40 mg, pravastatin 80 mg, pravastatin 160 mg or placebo. Blinded treatment was administered once-daily at bedtime for 6 weeks.
Number of Subjects: 190 randomized; 189 received randomized study drug, 184 completed the study.
Diagnosis and Main Criteria for Inclusion: Consenting men, or postmenopausal and surgically sterile women, aged 18 through 65 years were eligible to enroll in the study if they met the following criteria: 1) mean serum LDL-C≧160 mg/dL (the LDL-C concentration of the lower qualifying specimen were to be within 15% of the higher qualifying specimen) and 2) mean serum TG≦500 mg/dL obtained from two consecutive qualifying specimens.
Test Product, dose, mode of administration: pravastatin, 40 mg tablets, oral
Primary Efficacy Outcome Measure:
Change from baseline in calculated serum LDL-C at Week 6 of double-blind treatment.
Secondary Efficacy Outcome Measures:
Change from baseline in serum LDL-C at Weeks 2 and 4 of double blind treatment.
Change from baseline in serum TC, HDL-C, and TG at Weeks 2,4, and 6 of double-blind treatment.
Analyses of covariance with terms for treatment and baseline.
A contrast of the dose groups from the analysis of covariance model.

[2] = system: subjects with primary hypercholesterolemia; test: Safety and tolerability in the same 6-week clinical study (adverse events, laboratory analyses); assay type: in vivo, human
Experimental: as §1, §2
Medical history, physical examinations, laboratory analyses, and clinical adverse events (AEs).

[3] = pravastatin 40 mg once daily, Week 6, N=45
[4] = pravastatin 80 mg once daily, Week 6, N=48
[5] = pravastatin 160 mg once daily, Week 6, N=48
[6] = pravastatin 40 mg once daily, 6 weeks, N=46
[7] = pravastatin 80 mg once daily, 6 weeks, N=49
[8] = pravastatin 160 mg once daily, 6 weeks, N=48

**Q.** Which “absolute reduction in LDL cholesterol as the dose was doubled” value ([1]; dose doubled from 40 mg to 80 mg, and again from 80 mg to 160 mg) does the source give for `CC[C@H](C)C(=O)O[C@H]1C[C@H](O)C=C2C=C[C@H](C)[C@H](CC[C@@H](O)C[C@@H](O)CC(=O)O)[C@H]21` [Pravastatin, Pravastatin sodium] here?
**A.** greater than 6%

**Q.** What about the “additional LDL-C lowering with every doubling of the dose” value ([1]; doses of 40-160 mg once daily, 6 weeks) of the same molecule?
**A.** 8%

**Q.** And the “LDL-C (calculated) Week 6 Mean” value ([1]; pravastatin 40 mg once daily oral at bedtime, Week 6, N=45)?
**A.** 139.0 mg/dL

**Q.** And the “HDL-C % Δ, adjusted percent change from baseline (ANCOVA)” value (“HDL-C % Δ, adjusted percent change” below) ([1]; pravastatin 40 mg once daily)?
**A.** 11.4%

**Q.** And the “LDL-C (calculated) % Δ, adjusted percent change from baseline (ANCOVA)” value ([1]; pravastatin 40 mg once daily)?
**A.** −28.6%

**Q.** And the “TC % Δ, adjusted percent change from baseline (ANCOVA)” value (“TC % Δ, adjusted percent change” below) ([1]; pravastatin 40 mg once daily)?
**A.** −20.0%

**Q.** What about the “TG % Δ, adjusted percent change from baseline (ANCOVA)” value (“TG % Δ, adjusted percent change” for short) ([1]; pravastatin 40 mg once daily) of the same molecule?
**A.** −15.8%

**Q.** What about the “HDL-C Week 6 Mean” value [1, 3] of the same molecule?
**A.** 52.8 mg/dL

**Q.** And the “TC Week 6 Mean” value [1, 3]?
**A.** 219.8 mg/dL

**Q.** What about the “TG Week 6 Mean” value [1, 3] of the same molecule?
**A.** 140.9 mg/dL

**Q.** What about the “mean reduction in LDL-C” value ([1]; pravastatin 40 mg) of the same molecule?
**A.** 29%

**Q.** What about the “increase in HDL-C” value ([1]; pravastatin 40 mg) of the same molecule?
**A.** 11.4%

**Q.** What about the “mean reduction in TC” value ([1]; pravastatin 40 mg) of the same molecule?
**A.** 20%

**Q.** What about the “mean reduction in TG” value ([1]; pravastatin 40 mg) of the same molecule?
**A.** 16%

**Q.** And the “LDL-C (calculated) Week 6 Mean” value ([1]; pravastatin 80 mg once daily oral at bedtime, Week 6, N=48)?
**A.** 124.7 mg/dL

**Q.** What about the “HDL-C % Δ, adjusted percent change” value ([1]; pravastatin 80 mg once daily) of the same molecule?
**A.** 8.4%

**Q.** What about the “LDL-C (calculated) % Δ, adjusted percent change from baseline (ANCOVA)” value ([1]; pravastatin 80 mg once daily) of the same molecule?
**A.** −36.7%

**Q.** And the “TC % Δ, adjusted percent change” value ([1]; pravastatin 80 mg once daily)?
**A.** −26.3%

**Q.** What about the “TG % Δ, adjusted percent change” value ([1]; pravastatin 80 mg once daily) of the same molecule?
**A.** −14.2%

**Q.** And the “HDL-C Week 6 Mean” value [1, 4]?
**A.** 45.0 mg/dL

**Q.** And the “TC Week 6 Mean” value [1, 4]?
**A.** 201.6 mg/dL

**Q.** And the “TG Week 6 Mean” value [1, 4]?
**A.** 158.8 mg/dL

**Q.** What about the “mean reduction in LDL-C” value ([1]; pravastatin 80 mg) of the same molecule?
**A.** 37%

**Q.** What about the “increase in HDL-C” value ([1]; pravastatin 80 mg) of the same molecule?
**A.** 8.4%

**Q.** And the “mean reduction in TC” value ([1]; pravastatin 80 mg)?
**A.** 26%

**Q.** What about the “mean reduction in TG” value ([1]; pravastatin 80 mg) of the same molecule?
**A.** 14%

**Q.** What about the “LDL-C (calculated) Week 6 Mean” value ([1]; pravastatin 160 mg once daily oral at bedtime, Week 6, N=47) of the same molecule?
**A.** 108.4 mg/dL

**Q.** What about the “HDL-C % Δ, adjusted percent change” value ([1]; pravastatin 160 mg once daily) of the same molecule?
**A.** 9.6%

**Q.** And the “LDL-C (calculated) % Δ, adjusted percent change from baseline (ANCOVA)” value ([1]; pravastatin 160 mg once daily)?
**A.** −45.2%

**Q.** What about the “TC % Δ, adjusted percent change” value ([1]; pravastatin 160 mg once daily) of the same molecule?
**A.** −34.2%

**Q.** What about the “TG % Δ, adjusted percent change” value ([1]; pravastatin 160 mg once daily) of the same molecule?
**A.** −26.9%

**Q.** What about the “HDL-C Week 6 Mean” value [1, 5] of the same molecule?
**A.** 46.4 mg/dL

**Q.** What about the “TC Week 6 Mean” value [1, 5] of the same molecule?
**A.** 181.3 mg/dL

**Q.** What about the “TG Week 6 Mean” value [1, 5] of the same molecule?
**A.** 132.0 mg/dL

**Q.** What about the “mean reduction in LDL-C” value ([1]; pravastatin 160 mg) of the same molecule?
**A.** 45%

**Q.** And the “increase in HDL-C” value ([1]; pravastatin 160 mg)?
**A.** 9.6%

**Q.** And the “mean reduction in TC” value ([1]; pravastatin 160 mg)?
**A.** 34%

**Q.** And the “mean reduction in TG” value ([1]; pravastatin 160 mg)?
**A.** 27%

**Q.** What about the “subjects with CK elevation >4×ULN” value ([2]; 40 mg pravastatin (one subject)) of the same molecule?
**A.** 2.2%

**Q.** And the “subjects discontinued due to gastrointestinal events considered possibly related to study drug” value ([2]; 160 mg pravastatin treatment group (two subjects))?
**A.** 1.4%

**Q.** What about the “tolerability / safety in words” value ([2]; 40, 80 and 160 mg once daily for 6 weeks) of the same molecule?
**A.** appears safe and well tolerated

**Q.** And the “deaths or serious adverse events in the study” value ([2]; all treatment groups, 6 weeks)?
**A.** no deaths or serious adverse events

**Q.** And the “marked abnormalities (MAs) for ALT and AST” value ([2]; all treatment groups, 6 weeks)?
**A.** No marked abnormalities

**Q.** And the “Number of randomized subjects with ADE (adverse drug experience), n (%)” value (from here on “Number of randomized subjects with ADE … (%)”) [2, 6]?
**A.** 5 (10.9%)

**Q.** What about the “Number of randomized subjects with AE (total), n (%)” value (shortened to “Number … (total), n (%)”) [2, 6] of the same molecule?
**A.** 19 (43%)

**Q.** And the “Number of randomized subjects with Discontinuations, n (%)” value (shortened to “Number … with Discontinuations, n (%)”) [2, 6]?
**A.** 0

**Q.** And the “Number of randomized subjects with SAE (serious adverse event)” value (“Number of randomized subjects with SAE” for short) [2, 6]?
**A.** 0

**Q.** What about the “Number of randomized subjects with ADE … (%)” value [2, 7] of the same molecule?
**A.** 14 (28.6%)

**Q.** What about the “Number … (total), n (%)” value [2, 7] of the same molecule?
**A.** 24 (49.0%)

**Q.** And the “Number … with Discontinuations, n (%)” value [2, 7]?
**A.** 0

**Q.** What about the “Number of randomized subjects with SAE” value [2, 7] of the same molecule?
**A.** 0

**Q.** And the “frequency of adverse events by body system” value ([2]; pravastatin 160 mg dose)?
**A.** higher frequency of adverse events in the gastrointestinal and respiratory body systems

**Q.** What about the “Number of randomized subjects with ADE … (%)” value [2, 8] of the same molecule?
**A.** 17 (35.4%)

**Q.** What about the “Number … (total), n (%)” value [2, 8] of the same molecule?
**A.** 29 (60.4%)

**Q.** And the “Number … with Discontinuations, n (%)” value [2, 8]?
**A.** 2 (1.4%)

**Q.** And the “Number of randomized subjects with SAE” value [2, 8]?
**A.** 0
